Values of other authors as cited in US11147270B2, “Pesticide based on formation of formate anion in situ” (priority 2018, dated 2021).

Conditions: at 20° C.

SMILES: Cl [hydrochloric acid]
- vapor pressure: approximately 32452 mmHg
